Laboratory results reported in patent US4103028A, “Complement inhibitors” (American Cyanamid Company, priority 1977, dated 1978).
Where a name gives a salt, the structure may show the parent alone.

Key:
[1] = tested on: complement level in undiluted serum; assay: Complement Level Reduction Test; parameters: species or system guinea pig; conditions: In vivo, dosed guinea pigs bled for serum; capillary tube method, compared to undosed control guinea pigs
From the text: (§1) This test measures the ability of activated […] in the presence of C4 and appropriate dilutions of the test compound. An active inhibitor protects C2 from C1 and C4; (ii) Test, Code 035 (C3-C9 inhibitor) -- This test determines the ability of the late components of human complement (C3-C9) to lyse EAC 142 in the presence of appropriate dilutions of the test compound. An active inhibitor protects EAC 142 from lysis by human C3-C9; (iii) Test, Code 036 (C-Shunt inhibitor) -- In this test human erythrocytes rendered fragile are lysed in autologous serum via the shunt pathway activated by cobra venom factor in the presence of appropriate dilutions of the test compound. Inhibition of the shunt pathway results in failure of lysis; (iv) Forssman Vasculitis Test -- Here, the well known complement dependent lesion, Forssman vascultitis, is produced in guinea pigs by intradermal injection of rabbit anti-Forssman antiserum. The lesion is measured in terms of diameter, edema and hemorrhage and the extent to which a combined index of these is inhibited by prior intraperitoneal injection of the test compound at 200 mg/kg is then reported, unless otherwise stated; (v) Forssman Shock Test -- Lethal shock is produced in guinea pigs by an i.v. injection of anti-Forssman antiserum and the harmonic mean death time of treated guinea pigs is compared with that of simultaneous controls; (vi) Complement Level Reduction Test -- In this test, the above dosed quinea pigs, or others, are bled for serum and the complement level is determined in undiluted serum by the capillary tube method of U.S. Pat. No. 3,876,376 and compared to undosed control guinea pigs; and (vii) Cap 50 Test -- Here, appropriate amounts of the test compound are added to a pool of guinea pig serum in vitro, after which the undiluted serum capillary tube assay referred to above is run. The concentration of compound inhibiting 50% is reported.

[2] = tested on: late components of human complement (C3-C9); assay: Test, Code 035 (C3-C9 inhibitor), lysis of EAC 142; assay type: biochemical; conditions: In vitro; well number of a two-fold serial dilution assay, higher well number indicates higher activity; NEG = negative
From the text: as §1

[3] = target: T1, C1 (Homo sapiens, UniProt P09871); assay: Test, Code 026 (C1 inhibitor), serial dilution assay; assay type: biochemical; conditions: In vitro; well number of a two-fold serial dilution assay, higher well number indicates higher activity; NEG = negative
T1 sequence (P09871 16-437 limits assumed): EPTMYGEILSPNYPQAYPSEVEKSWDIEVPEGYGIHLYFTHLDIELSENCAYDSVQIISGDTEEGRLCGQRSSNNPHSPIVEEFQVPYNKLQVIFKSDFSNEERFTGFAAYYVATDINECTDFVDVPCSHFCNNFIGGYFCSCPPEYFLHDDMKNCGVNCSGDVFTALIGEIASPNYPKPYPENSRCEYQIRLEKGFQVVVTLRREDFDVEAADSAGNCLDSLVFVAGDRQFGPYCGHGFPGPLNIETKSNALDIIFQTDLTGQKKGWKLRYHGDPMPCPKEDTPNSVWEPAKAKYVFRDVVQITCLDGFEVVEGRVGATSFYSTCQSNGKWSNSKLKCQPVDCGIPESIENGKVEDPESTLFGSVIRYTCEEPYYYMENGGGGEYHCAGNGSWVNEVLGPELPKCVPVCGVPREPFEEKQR
T1 sequence (P09871 438-688 limits assumed): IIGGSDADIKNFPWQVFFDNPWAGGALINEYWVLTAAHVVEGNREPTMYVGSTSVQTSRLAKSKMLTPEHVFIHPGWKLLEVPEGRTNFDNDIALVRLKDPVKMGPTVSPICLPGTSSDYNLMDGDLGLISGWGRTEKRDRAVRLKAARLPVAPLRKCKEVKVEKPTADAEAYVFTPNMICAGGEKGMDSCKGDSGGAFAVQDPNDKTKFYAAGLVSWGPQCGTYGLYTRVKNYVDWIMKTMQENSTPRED
From the text: as §1

[4] = tested on: Forssman vasculitis in guinea pigs; assay: Forssman Vasculitis Test; parameters: species or system guinea pig; conditions: In vivo, inhibition of combined index of lesion diameter, edema and hemorrhage, prior intraperitoneal injection at 200 mg/kg unless otherwise stated
From the text: as §1

[5] = tested on: shunt pathway; assay: Test, Code 036 (C-Shunt inhibitor), lysis of fragile human erythrocytes in autologous serum, cobra venom factor; assay type: biochemical; conditions: In vitro; well number of a two-fold serial dilution assay, higher well number indicates higher activity; NEG = negative
From the text: as §1

With `Cc1ccc(NC(=O)Nc2cccc(C(=O)Nc3cc(S(=O)(=O)O)cc4cc(S(=O)(=O)O)cc(O)c34)c2)cc1[N+](=O)[O-]` [4-Hydroxy-5-m-[3-(3-nitro-p-tolyl)ureido]benzamido-2,7-naphthalenedisulfonic acid, disodium salt] the “% Reduction Complement” value [1] was “+46%”, the “035 (activity in wells)” value [2] was “NEG” and the “026 (activity in wells)” value [3] was “NEG”. The Forssman [4] was 15 and the “036 (activity in wells)” value [5] was “NEG”.
In the case of `Cc1ccc(C(=O)Nc2cc(S(=O)(=O)O)cc3cc(S(=O)(=O)O)cc(O)c23)cc1N` [4-(3-Amino-p-toluamido)-5-hydroxy-2,7-naphthalenedisulfonic acid, disodium salt], the “035 (activity in wells)” value [2] is reported as “NEG”, the “026 (activity in wells)” value [3] is reported as 5 and the “036 (activity in wells)” value [5] is reported as “NEG”.
For `O=C(Nc1ccc(S(=O)(=O)F)cc1)Nc1cccc(C(=O)Nc2cc(S(=O)(=O)[O-])cc3cc(S(=O)(=O)[O-])cc(O)c23)c1.[Na+].[Na+]` [4-{m-{3-[p-(Fluorosulfonyl)phenyl]ureido}benzamido}-5-hydroxy-2,7-naphthalenedisulfonic acid, disodium salt], the “035 (activity in wells)” value [2] was “NEG”, the “026 (activity in wells)” value [3] was 4 and the “036 (activity in wells)” value [5] was “NEG”.
In the case of `O=C(Nc1cccc(C(=O)Nc2cc3c(O)cc(S(=O)(=O)O)cc3cc2S(=O)(=O)O)c1)Nc1cccc(C(=O)Nc2cc3c(O)cc(S(=O)(=O)O)cc3cc2S(=O)(=O)O)c1` [3,3'-[Ureylenebis (m-phenylenecarbonylimino)]bis[5-hydroxy-2,7-naphthalenedisulfonic acid]tetrasodium salt], the “% Reduction Complement” value [1] is reported as -31%, the “035 (activity in wells)” value [2] is reported as 2 and the “026 (activity in wells)” value [3] is reported as 5. The Forssman [4] was 35 and the “036 (activity in wells)” value [5] was 2.
`Cc1cc(C(=O)Nc2cc(S(=O)(=O)O)cc3cc(S(=O)(=O)O)cc(O)c23)ccc1N` [4-(4-Amino-m-toluamido)-5-hydroxy-2,7-naphthalenedisulfonic acid, disodium salt] was tested, and the “% Reduction Complement” value [1] was “+12%”, the “035 (activity in wells)” value [2] was “NEG” and the “026 (activity in wells)” value [3] was 5. For the same molecule, the Forssman [4] was 17 and the “036 (activity in wells)” value [5] was “NEG”.
`O=C(Nc1cccc(C(=O)Nc2cc(S(=O)(=O)O)cc3cc(S(=O)(=O)O)cc(O)c23)c1)Nc1cccc(C(F)(F)F)c1` [4-Hydroxy-5-m-[3-(α,α,α-trifluoro-m-tolyl)ureido]benzamido-2,7-naphthalenedisulfonic acid, disodium salt] was tested, and the “% Reduction Complement” value [1] was -6%, the “035 (activity in wells)” value [2] was “NEG” and the “026 (activity in wells)” value [3] was 1. The Forssman [4] was 5 and the “036 (activity in wells)” value [5] was “NEG”.
In the case of `Cc1ccc([N+](=O)[O-])cc1C(=O)Nc1cc(S(=O)(=O)O)cc2cc(S(=O)(=O)O)cc(O)c12` [4-Hydroxy-5-(5-nitro-o-toluamido)-2,7-naphthalenedisulfonic acid, disodium salt], the “% Reduction Complement” value [1] is reported as -17%, the “035 (activity in wells)” value [2] is reported as “NEG” and the “026 (activity in wells)” value [3] is reported as 2. For the same molecule, the Forssman [4] was 10 and the “036 (activity in wells)” value [5] was “NEG”.
In the case of `Cc1ccc(C(=O)Nc2cc(S(=O)(=O)O)cc3cc(S(=O)(=O)O)cc(O)c23)cc1[N+](=O)[O-]` [4-Hydroxy-5-(3-nitro-p-toluamido)-2,7-naphthalenedisulfonic acid, disodium salt], the “035 (activity in wells)” value [2] is reported as “NEG”, the “026 (activity in wells)” value [3] is reported as 3 and the “036 (activity in wells)” value [5] is reported as “NEG”.
For `Cc1cc(C(=O)Nc2cc(S(=O)(=O)O)cc3cc(S(=O)(=O)O)cc(O)c23)ccc1[N+](=O)[O-]` [4-Hydroxy-5-(4-nitro-3-toluamido)-2,7-naphthalenedisulfonic acid, disodium salt], the “% Reduction Complement” value [1] was -20%, the “035 (activity in wells)” value [2] was “NEG” and the “026 (activity in wells)” value [3] was 2. The Forssman [4] was 48 and the “036 (activity in wells)” value [5] was “NEG”.
In the case of `O=C(Nc1cccc(C(=O)Nc2cc(S(=O)(=O)[O-])cc3cc(S(=O)(=O)[O-])cc(O)c23)c1)Nc1cccc(C(=O)Nc2cc(S(=O)(=O)[O-])cc3cc(S(=O)(=O)[O-])cc(O)c23)c1.[Na+].[Na+].[Na+].[Na+]` [5,5'-[Ureylenebis(m-phenylenecarbonylimino)]bis[4-hydroxy-2,7-naphthalenedisulfonic acid] tetrasodium salt], the “035 (activity in wells)” value [2] is reported as 1, the “026 (activity in wells)” value [3] is reported as 6 and the “036 (activity in wells)” value [5] is reported as 2.
`Cc1ccc(N)cc1C(=O)Nc1cc(S(=O)(=O)O)cc2cc(S(=O)(=O)O)cc(O)c12` [4-(5-Amino-o-toluamido)-5-hydroxy-2,7-naphthalenedisulfonic acid, disodium salt] was tested, and the “035 (activity in wells)” value [2] was “NEG”, the “026 (activity in wells)” value [3] was 2 and the “036 (activity in wells)” value [5] was “NEG”.
